From US9115137B2, “2,3,4,5-tetrahydro-1H-pyrido[4,3-B]indole compounds and methods of use thereof” (priority 2008, dated 2015) come the findings set out here.

For test [1], the target named is T1, human recombinant serotonin (5-Hydroxytryptamine) 5-HT2C receptor (Homo sapiens, UniProt P28335).
T1 construct: expressed in transfected cells; host or cells: CHO-K1 cells
T1 sequence (P28335 33-458): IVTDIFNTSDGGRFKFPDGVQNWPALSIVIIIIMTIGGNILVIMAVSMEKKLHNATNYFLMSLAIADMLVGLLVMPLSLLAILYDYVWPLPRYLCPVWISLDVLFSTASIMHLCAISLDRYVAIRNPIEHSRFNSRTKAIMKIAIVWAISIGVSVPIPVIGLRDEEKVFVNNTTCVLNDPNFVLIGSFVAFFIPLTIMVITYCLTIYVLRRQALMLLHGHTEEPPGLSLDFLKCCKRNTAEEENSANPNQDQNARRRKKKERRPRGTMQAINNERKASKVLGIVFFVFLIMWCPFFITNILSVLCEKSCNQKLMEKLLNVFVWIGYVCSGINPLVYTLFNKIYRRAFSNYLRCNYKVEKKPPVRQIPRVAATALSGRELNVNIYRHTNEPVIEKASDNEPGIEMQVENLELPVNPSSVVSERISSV
Briefly: Serotonin 5-HT2C radioligand binding ([3H]Mesulergine). The note with it: compound at 1 μM; CHO-K1 cells; read-out: Serotonin (1 μM) 5-HT2C, percent inhibition of specific binding. A digest of the protocol: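 Membranes from CHO-K1 cells expressing the human receptor were incubated 60 min at 25 °C with 1 nM [3H]mesulergine in 50 mM Tris-HCl pH 7.4 with ascorbic acid and pargyline; 1 μM mianserin defined non-specific binding.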

Test [2] concerns the target T2, human recombinant adrenergic α1D receptor (Homo sapiens, UniProt P25100).
T2 construct: expressed in transfected cells; host or cells: HEK-293 cells
T2 sequence (P25100 1-572): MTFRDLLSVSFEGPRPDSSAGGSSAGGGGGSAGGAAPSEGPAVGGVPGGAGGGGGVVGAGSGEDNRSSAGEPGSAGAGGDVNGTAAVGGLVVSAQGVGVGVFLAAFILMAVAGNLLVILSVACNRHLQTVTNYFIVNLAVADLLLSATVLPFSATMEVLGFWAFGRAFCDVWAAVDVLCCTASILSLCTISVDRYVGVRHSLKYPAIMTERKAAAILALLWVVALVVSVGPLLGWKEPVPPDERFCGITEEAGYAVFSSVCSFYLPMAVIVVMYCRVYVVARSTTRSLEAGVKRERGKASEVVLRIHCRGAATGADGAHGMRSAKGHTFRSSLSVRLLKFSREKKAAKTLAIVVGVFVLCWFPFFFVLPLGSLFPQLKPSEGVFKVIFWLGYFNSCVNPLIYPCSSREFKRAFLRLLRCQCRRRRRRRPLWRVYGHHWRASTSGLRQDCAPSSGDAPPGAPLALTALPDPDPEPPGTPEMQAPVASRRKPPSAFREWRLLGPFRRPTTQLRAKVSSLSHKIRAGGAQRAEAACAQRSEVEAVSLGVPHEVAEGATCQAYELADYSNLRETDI
Put plainly: Adrenergic α1D radioligand binding ([3H]Prozosin). Particulars: compound at 1 μM; HEK-293 cells; read-out: Adrenergic (1 μM) α1D, percent inhibition of specific binding. The procedure, abridged:
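Values are percent inhibition of specific [3H]prazosin (0.6 nM) binding, determined by filtration after 60 min at 25° C, pH 7.4 Tris-HCl, on recombinant human α1D receptor in HEK-293 cells. Compounds tested at 1 μM or below in 1% DMSO; 10 μM phentolamine set non-specific binding.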

In test [3] the target is T3, human recombinant histamine H2 receptor (Homo sapiens, UniProt P25021).
T3 construct: expressed in transfected cells; host or cells: CHO-K1 cells
Briefly: Histamine H2 radioligand binding ([125I]aminopotentidine). The note with it: compound at 1 μM; CHO K1 cells; read-out: Histamine Binding (1 μM) H2, percent inhibition of specific binding. A digest of the protocol: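 CHO-K1 membranes expressing the receptor were incubated in 50 mM phosphate buffer pH 7.4 with 0.1 nM [125I]aminopotentidine for 120 minutes at 25° C., with nonspecific binding defined by 3 μM tiotidine. Compounds were tested at 1 μM (1% DMSO); bound radioligand was counted after filtration, values given as percent inhibition of specific binding.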

For test [4], the target named is T4, human recombinant histamine H1 receptor (Homo sapiens, UniProt P35367).
T4 construct: expressed in transfected cells; host or cells: CHO cells
Briefly: Histamine H1 radioligand binding ([3H]Pyrilamine). Particulars: compound at 1 μM; CHO cells; read-out: Histamine Binding (1 μM) H1, percent inhibition of specific binding. A digest of the protocol: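 Recombinant human H1 receptor expressed in CHO cells, in Tris-HCl pH 7.4 with MgCl2, NaCl and sucrose, incubated with 1.2 nM [3H]pyrilamine for 180 min at 25 °C; non-specific binding defined with 1 μM pyrilamine. Compounds tested at 1 μM in 1% DMSO; filter-bound counts give percent inhibition of specific binding.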

T4 sequence (P35367 whole entry): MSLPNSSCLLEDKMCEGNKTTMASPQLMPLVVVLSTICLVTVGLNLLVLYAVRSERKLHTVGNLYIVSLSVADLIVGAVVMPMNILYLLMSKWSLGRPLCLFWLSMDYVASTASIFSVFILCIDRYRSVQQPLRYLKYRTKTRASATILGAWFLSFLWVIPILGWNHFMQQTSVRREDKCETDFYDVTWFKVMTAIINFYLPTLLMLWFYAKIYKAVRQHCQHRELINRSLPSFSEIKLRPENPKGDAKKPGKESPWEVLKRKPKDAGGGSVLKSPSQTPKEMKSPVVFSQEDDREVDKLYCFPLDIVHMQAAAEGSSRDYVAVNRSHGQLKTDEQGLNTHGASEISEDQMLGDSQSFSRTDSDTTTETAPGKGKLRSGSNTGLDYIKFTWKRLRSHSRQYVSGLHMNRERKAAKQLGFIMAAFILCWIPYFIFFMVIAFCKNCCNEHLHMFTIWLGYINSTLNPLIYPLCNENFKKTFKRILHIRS
T3 sequence (P25021 whole entry): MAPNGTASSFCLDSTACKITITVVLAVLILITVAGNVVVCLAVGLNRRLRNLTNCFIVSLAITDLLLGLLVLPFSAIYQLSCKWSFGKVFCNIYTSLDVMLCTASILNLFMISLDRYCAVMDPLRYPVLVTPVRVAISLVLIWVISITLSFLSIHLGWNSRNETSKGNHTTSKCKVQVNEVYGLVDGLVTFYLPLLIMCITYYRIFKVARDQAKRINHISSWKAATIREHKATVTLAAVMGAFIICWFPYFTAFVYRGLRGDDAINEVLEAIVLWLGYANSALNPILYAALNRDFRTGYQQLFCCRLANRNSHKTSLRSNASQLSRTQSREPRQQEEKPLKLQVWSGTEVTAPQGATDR

`CN1CCc2c(c3cc(Cl)ccc3n2CC(=O)NC2CCCCC2)C1` [Compound 60, 2-(8-chloro-1,2,3,4-tetrahydro-2-methylpyrido[4,3-b]indol-5-yl)-N-cyclohexylacetamide]: the inhibition – broadly, the relative decrease from the control value, in per cent – at 1 µM in test [1] stood at 35%; in test [2] it was 22%; in test [3], 3%; in test [4], 50%.
In the same order, the values of `CN1CCc2c(c3cc(Cl)ccc3n2CC(=O)N(C)C)C1` [Compound 48, 2-(8-chloro-1,2,3,4-tetrahydro-2-methylpyrido[4,3-b]indol-5-yl)-N,N-dimethylacetamide] are 37%, 10%, 4% and 73%.
The like results for `CCOC(=O)Cn1c2c(c3cc(Cl)ccc31)CN(C)CC2` [Compound 10, ethyl 2-(8-chloro-1,2,3,4-tetrahydro-2-methylpyrido[4,3-b]indol-5-yl)acetate] were, in that order, 92%, 50%, 28% and 99%.
In the same order, the values of `CNC(=O)CCn1c2c(c3cc(C)ccc31)CN(C)CC2` [Compound 1, 3-(1,2,3,4-tetrahydro-2,8-dimethylpyrido[4,3-b]indol-5-yl)-N-methylpropanamide] are 20%, 20%, 8% and 34%.
For `Cc1ccc2c(c1)c1c(n2CCNC(=O)C2CCCC2)CCN(C)C1` [Compound 68, N-(2-(1,2,3,4-tetrahydro-2,8-dimethylpyrido[4,3-b]indol-5-yl)ethyl)cyclopentanecarboxamide], the inhibition at 1 µM in test [1] was 40%; in test [2], 66%; in test [3] it was 31%; in test [4], 58%.
In the case of `Cc1ccc2c(c1)c1c(n2CCNC(=O)c2ccc(F)cc2Cl)CCN(C)C1` [Compound 63, 2-chloro-4-fluoro-N-(2-(1,2,3,4-tetrahydro-2,8-dimethylpyrido[4,3-b]indol-5-yl)ethyl)benzamide], the inhibition at 1 µM was found to be 72% in test [1], 56% in test [2], 35% in test [3] and 86% in test [4].
